The text below walks through data of article PMC8838521, “Antimicrobial, Cytotoxic and Mutagenic Activity of Gemini QAS Derivatives of 1,4:3,6-Dianhydro-L-iditol” (Molecules, 2022).

One may read the MIC as the lowest concentration that inhibits growth of the organism. Broadly, the IC50 is the concentration at which inhibition is half-maximal.

The structures appear in SMILES notation. Values joined by “and” are separate entries in the source; they are usually repeats but may differ in a detail not shown here. Equal values may be shown once. Bounds are passed on as bounds.

Holding throughout (format): cell-based
The test system of test [1] is Candida glabrata DSMZ 11226. Nature of the test: Antimicrobial activity, microdilution MIC, C. glabrata. Particulars: Nakaseomyces glabratus, DSMZ11226, 24 h, MIC90, 24 h, RPMI; read-out: MIC C. glabrata DSMZ 11226. How it is done: (§1) The antimicrobial potential of the tested agents was evaluated against two reference strains of bacteria: Staphylococcus aureus ATCC 25923 and Escherichia coli K12, two reference strains of pathogenic yeasts, Candida albicans ATCC10231 and Candida glabrata DSMZ11226, as well as 20 strains of clinical isolates of S. aureus collected from patients with skin and soft tissue infections (n = 8) and strains derived from subclinical bovine mastitis milk samples (n = 12). Four of these strains, two isolated from human infections and two isolated from bovine mastitis, were classified as MRSA (Methicillin-resistant Staphylococcus aureus). All of them were mecA positive and their methicillin resistance was confirmed with the disc diffusion assay. The remaining 16 strains were MSSA (Methicillin-sensitive Staphylococcus aureus). The assays were performed using a serial, two-fold dilution method in 96-well microtiter plates under conditions recommended by the Clinical and Laboratory Standards Institute (CLSI, Pittsburgh, PA, USA). The aim of this procedure was the determination of the MIC parameter (Minimum Inhibitory Concentration)—the minimum concentration of a tested agent capable to inhibit the growth of a specified strain of microorganism. The agents were solubilized in deionized, sterile water to a final concentration of […]. Subsequently, solutions were mixed (1:1 (v/v)) with 2 × concentrated liquid medium, Mueller-Hinton Broth 2—cation adjusted (MHB2) for evaluation of antibacterial activity and RPMI in the case of evaluation of the antifungal activity. […] Subsequently, the solutions were mixed with MHB2 or RPMI medium to get the final concentration of 8.192 mg/mL (8192 µg/mL). In the next step, the serial, two-fold dilutions of the tested agents (over the range of concentrations from 8192 to 8 µg/mL for reference strains of bacteria and yeasts and from 512 to 1.0 µg/mL for clinical isolates of S. aureus) were prepared in 96-well microtitration plates in the final volume of 100 μL of the appropriate medium.
(§2) The pure cultures of yeast strains were grown on the Sabouraud Dextrose Agar (SDA) for 18–24 h at 37 °C. Suspensions of the microorganisms were prepared by taking one loop of pure culture into sterile water and adjusting optical density to 0.1 at 660 nm and further 50-fold dilution in RPMI 1640 medium resulting in cells concentration of approximate 2 × 10^4 CFU/mL. One hundred μL of that suspension was inoculated to the wells of the microtitration plate containing appropriate dilutions of the agents. The positive growth control of each strain (both bacteria and yeasts) was performed in the wells without the tested substances. The negative control containing only the media was included in each assay. Microtiter plates were incubated at 37 °C for 24 h. Following the incubation period, determination of the MIC values of the tested agents was carried out by measuring the absorbance at 531 nm using a Victor^3 microplate reader (Perkin Elmer, Inc., Waltham, MA, USA). The lowest concentration of the agent causing inhibition of growth equal to or higher than 90% (MIC90) of growth control was taken as the MIC value. Each test was repeated three times.
In general terms: Broth dilution looks for growth in wells or tubes with falling amounts of substance.

Test [2] has as its system Staphylococcus aureus ATCC 25923. Nature of the test: Antimicrobial activity, microdilution MIC, S. aureus reference strain. Particulars: Staphylococcus aureus, ATCC25923, 24 h, MIC90, 24 h, MHB2; read-out: MIC S. aureus ATCC 25923. On the procedure:
as §1
The pure bacterial cultures of (both the reference and clinical strains) were grown on the Mueller-Hinton Agar (MHA) for 18–24 h at 37 °C. A small amount of the biomass of the culture of each strain of microorganisms was suspended in the sterile PBS (phosphate buffered saline, pH 7.4 at 25 °C, purchased from Sigma) solution to get an optical density OD600 = 0.13 (equal to the cells concentration approximately 1 × 10^8 CFU/mL). The obtained suspensions of the cells were next diluted 1:100 (v/v) in the MHB2 medium. One hundred µL of the cells’ suspension was finally loaded into the wells of plates prepared in advance, which contained 100 µL of two-fold dilutions of the tested agents (the final concentration of the bacterial cells in all wells was approximately 5 × 10^5 CFU/mL).
as §2, with “times. […]” for “times.”

Test [3] concerns human keratinocytes (HaCaT cell line). Nature of the test: Cytotoxicity, MTT assay. The note with it: Homo sapiens, HaCaT; MTT, 24 h incubation; read-out: HaCaT IC50. On the procedure:
To assess the cytotoxicity of QAS (IC50), the MTT assay on 96-well polystyrene plates was performed for human keratinocytes (HaCaT, Elabscience Biotechnology Inc., Houston, Texas, USA). The assay utilizes colorimetric determination of the cell metabolic activity and the color intensity reflects the number of live cells that can be measured spectrophotometrically. The cell line was cultured in a Dulbecco’s modified Eagle Medium (Invitrogen) supplemented with 10% fetal bovine serum (Sigma Aldrich) (v/v), 100 units/mL of penicillin, 100 μg/mL of streptomycin, and 2 mM L-glutamine and was stored at 37 °C in a humidified 5% CO2 incubator. Briefly, a day after plating of 500 cells per well, a series of concentrations (0.5–200 μg/mL) of the test compounds was applied. DMSO was added to the control cells at a final concentration of 1.0% (v/v), which was related to the maximal concentration of the solvent compounds used in the experiment. After 24 h of incubation with the QAS at 37 °C (humidified 5% CO2 incubator), a medium containing 1 mg/mL of MTT (3-(4,5-dimethylthiazol-2-yl)-2,5-diphenyltetrazolium bromide) was added to the wells up to a final concentration of 0.5 mg/mL. Subsequently, the plates were incubated at 37 °C for 4 h. Then, the medium was removed by suction, and the formazan product was solubilized with DMSO. The background absorbance at 630 nm was subtracted from that at 570 nm for each well (Epoch, BioTek Instruments, Winooski, VT, USA). Six replicates were conducted for each concentration. All experiments were repeated at least twice and the resulting IC50 values were calculated with GraFit 7 software (v. 7.0, Erithacus, Berkley, CA, USA).
Background: Tetrazolium dyes change colour on reduction, which living cells bring about.

In the case of `CCCCCCCC[N+](C)(C)C1COC2C1OCC2[N+](C)(C)CCCCCCCC` (stereo not drawn) [QAS 9], the MIC in test [1] was 1020 µg/mL and 1410 µM; in test [2] it was 128 µg/mL and 176 µM. For the same compound, in test [3], the IC50 was greater than 100 µg/mL.
Turning to `CCCCCCCCCC[N+](C)(C)C1COC2C1OCC2[N+](C)(C)CCCCCCCCCC` [QAS 10, N,N’-(1,4:3,6-Dianhydro-2,5-dideoxy-L-iditol-2,5-diyl)-bis(N,N-dimethyl-N-decylammonium) Ditrifluoromethanesulfonate], the MIC in test [1] is 16 µg/mL and 20 µM; in test [2], 8 µg/mL and 10 µM. In addition, the IC50 in test [3] turned out to be 12.8 ± 1.25 µg/mL.
